Biological target: T1, Human neutrophil elastase (HNE) (Homo sapiens, UniProt P08246)
T1 construct: gene ELANE
T1 sequence (P08246 30-247): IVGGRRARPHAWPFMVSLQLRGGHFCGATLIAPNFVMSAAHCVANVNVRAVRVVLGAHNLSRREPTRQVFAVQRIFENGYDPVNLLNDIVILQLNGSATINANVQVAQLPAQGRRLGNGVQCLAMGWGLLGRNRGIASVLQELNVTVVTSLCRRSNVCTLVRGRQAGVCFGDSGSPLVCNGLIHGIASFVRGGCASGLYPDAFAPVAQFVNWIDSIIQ
Test: fluorometric HNE activity assay with MeO-Suc-Ala-Ala-Pro-Val-AMC, […] min preincubation, […] °C
Format: biochemical

IC50: 18 nM
SMILES: CCC1(CC)C(=O)N(c2ccc(C(=O)O)cc2)C1=O [D4L-2]

From paper PMC9861744, “Polysulfone Membranes Doped with Human Neutrophil Elastase Inhibitors: Assessment of Bioactivity and Biocompatibility” (Membranes, 2023)
